Publication PMC7531004, “Discovery of gramicidin A analogues with altered activities by multidimensional screening of a one-bead-one-compound library” (Nature Communications, 2020)
Where a SMILES comes first, the peptide text is derived from it. [ ]: non-standard residue; d: D form. The star is where a group is joined. NHCH2CH2OH = OCCN*; For = O=C*

Experiments:
[1] = H+/Na+ transport assay of bead-derived peptides (one-point); type: biochemical; set-up: key: relative activity; mean of two control wells = 1.00; conditions: bead-derived peptide solution, EYPC/EYPG LUVs;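 note: relative to parent gramicidin A activity set to 1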
Method in brief: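 Values are normalized fluorescence, with Triton X-100 defining 100% and untreated LUVs 0%, and the two control wells averaging 1.00. Vesicles carried 1.0 mM pyranine and included egg yolk phosphatidylglycerol. Peptides were incubated with them 30 min at room temperature.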

[2] = cell viability/%
Method in brief: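 Peptide stocks diluted 250× in growth medium; P388 cells 1 × 10^4 cells/mL final; 37 °C, 5% CO2, 92 h. WST-1 + 1-methoxy PMS, 4 h, A415. Output: % viability.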

[3] = tested on: Streptococcus pyogenes SSI-9; assay: Antibacterial activity assay of bead-derived peptides (three concentrations); type: cell-based; set-up: key: +++: inhibition by the 640-fold diluted peptide solution; ++: inhibition by the 160-fold diluted solution; +: inhibition by the 40-fold diluted solution; -: no inhibition; conditions: S. pyogenes, bead-derived peptide solution, three concentrations
Method in brief: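 Growth inhibition scored visually as precipitated bacteria after 37 °C, 18 h incubation. Streptococcus pyogenes SSI-9 inoculum of 2 × 10^5 CFU in Ca2+/Mg2+-adjusted Mueller Hinton broth plus 5% laked horse blood; peptides tested at three levels: stock, 4-fold and 16-fold DMSO dilutions.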

| Structure (SMILES) | H+/Na+ transport activity normalized against the value of 1 (1.00) [1] | viability [2] | antibacterial activity [3] |
| --- | --- | --- | --- |
| CC(C)C[C@@H](NC(=O)[C@H](C)NC(=O)CNC(=O)[C@@H](NC=O)C(C)C)C(=O)N[C@@H](C)C(=O)N[C@H](CC(C)C)C(=O)N[C@H](C(=O)N[C@H](CC(C)C)C(=O)N[C@@H](Cc1c[nH]c2ccccc12)C(=O)N[C@@H](C(=O)N[C@@H](Cc1c[nH]c2ccccc12)C(=O)N[C@@H](C(=O)N[C@@H](Cc1c[nH]c2ccccc12)C(=O)N[C@@H](C(=O)N[C@@H](Cc1c[nH]c2ccccc12)C(=O)NCCO)[C@H](C)O)[C@H](C)O)C(C)C)C(C)C [compound 7253] (For-VGA[dL]A[dL]V[dL]W[dV]W[dT]W[dT]W-NHCH2CH2OH) | 1.03 | 45.4% | - |
| CC(C)C[C@@H](NC(=O)[C@H](C)NC(=O)CNC(=O)[C@@H](NC=O)C(C)C)C(=O)N[C@@H](C)C(=O)N[C@@H](C(=O)N[C@H](C(=O)N[C@H](CC(C)C)C(=O)N[C@@H](Cc1c[nH]c2ccccc12)C(=O)N[C@@H](C(=O)N[C@@H](Cc1c[nH]c2ccccc12)C(=O)N[C@@H](C(=O)N[C@@H](Cc1c[nH]c2ccccc12)C(=O)N[C@H](CC(C)C)C(=O)N[C@@H](Cc1c[nH]c2ccccc12)C(=O)NCCO)C(C)C)[C@H](C)O)C(C)C)C(C)C [compound 2236] (For-VGA[dL]A[dV]V[dL]W[dT]W[dV]W[dL]W-NHCH2CH2OH) | 1.03 | 100% | + |
| CC(C)C[C@@H](NC(=O)[C@H](Cc1c[nH]c2ccccc12)NC(=O)[C@@H](CC(C)C)NC(=O)[C@@H](NC(=O)[C@H](NC(=O)[C@H](C)NC(=O)[C@H](NC(=O)[C@H](C)NC(=O)CNC(=O)[C@@H](NC=O)C(C)C)[C@H](C)O)C(C)C)C(C)C)C(=O)N[C@@H](Cc1c[nH]c2ccccc12)C(=O)N[C@@H](C(=O)N[C@@H](Cc1c[nH]c2ccccc12)C(=O)N[C@@H](C(=O)N[C@@H](Cc1c[nH]c2ccccc12)C(=O)NCCO)C(C)C)C(C)C [compound 5563] (For-VGA[dT]A[dV]V[dL]W[dL]W[dV]W[dV]W-NHCH2CH2OH) | 1.08 | 100% | - |
| CC(C)C[C@@H](NC(=O)[C@@H](NC(=O)[C@H](NC(=O)[C@H](C)NC(=O)[C@H](NC(=O)[C@H](C)NC(=O)CNC(=O)[C@@H](NC=O)C(C)C)C(C)C)C(C)C)C(C)C)C(=O)N[C@@H](Cc1c[nH]c2ccccc12)C(=O)N[C@@H](C(=O)N[C@@H](Cc1c[nH]c2ccccc12)C(=O)N[C@@H](C(=O)N[C@@H](Cc1c[nH]c2ccccc12)C(=O)N[C@@H](C(=O)N[C@@H](Cc1c[nH]c2ccccc12)C(=O)NCCO)C(C)C)C(C)C)C(C)C [compound 885] (For-VGA[dV]A[dV]V[dL]W[dV]W[dV]W[dV]W-NHCH2CH2OH) | 1.03 | 93.4% | - |
| CC(C)C[C@@H](NC(=O)[C@H](C)NC(=O)CNC(=O)[C@@H](NC=O)C(C)C)C(=O)N[C@@H](C)C(=O)N[C@@H](C(=O)N[C@H](C(=O)N[C@H](CC(C)C)C(=O)N[C@@H](Cc1c[nH]c2ccccc12)C(=O)N[C@H](CC(C)C)C(=O)N[C@@H](Cc1c[nH]c2ccccc12)C(=O)N[C@@H](C(=O)N[C@@H](Cc1c[nH]c2ccccc12)C(=O)N[C@H](CC(C)C)C(=O)N[C@@H](Cc1c[nH]c2ccccc12)C(=O)NCCO)C(C)C)C(C)C)[C@H](C)O [compound 3247] (For-VGA[dL]A[dT]V[dL]W[dL]W[dV]W[dL]W-NHCH2CH2OH) | 1.24 | 99.5% | - |
| CC(C)C[C@@H](NC(=O)[C@H](C)NC(=O)[C@H](NC(=O)[C@H](C)NC(=O)CNC(=O)[C@@H](NC=O)C(C)C)C(C)C)C(=O)N[C@H](C(=O)N[C@H](CC(C)C)C(=O)N[C@@H](Cc1c[nH]c2ccccc12)C(=O)N[C@@H](C(=O)N[C@@H](Cc1c[nH]c2ccccc12)C(=O)N[C@H](CC(C)C)C(=O)N[C@@H](Cc1c[nH]c2ccccc12)C(=O)N[C@@H](C(=O)N[C@@H](Cc1c[nH]c2ccccc12)C(=O)NCCO)C(C)C)[C@H](C)O)C(C)C [compound 3260] (For-VGA[dV]A[dL]V[dL]W[dT]W[dL]W[dV]W-NHCH2CH2OH) | 1.10 | 100% | + |
| CC(C)C[C@@H](NC(=O)[C@H](C)NC(=O)[C@H](NC(=O)[C@H](C)NC(=O)CNC(=O)[C@@H](NC=O)C(C)C)[C@H](C)O)C(=O)N[C@H](C(=O)N[C@H](CC(C)C)C(=O)N[C@@H](Cc1c[nH]c2ccccc12)C(=O)N[C@H](CC(C)C)C(=O)N[C@@H](Cc1c[nH]c2ccccc12)C(=O)N[C@H](CC(C)C)C(=O)N[C@@H](Cc1c[nH]c2ccccc12)C(=O)N[C@H](CC(C)C)C(=O)N[C@@H](Cc1c[nH]c2ccccc12)C(=O)NCCO)C(C)C [compound 5618] (For-VGA[dT]A[dL]V[dL]W[dL]W[dL]W[dL]W-NHCH2CH2OH) | 1.13 | 85.1% | - |
| CC(C)C[C@@H](NC(=O)[C@H](C)NC(=O)CNC(=O)[C@@H](NC=O)C(C)C)C(=O)N[C@@H](C)C(=O)N[C@@H](C(=O)N[C@H](C(=O)N[C@@H](C(=O)N[C@@H](Cc1c[nH]c2ccccc12)C(=O)N[C@@H](C(=O)N[C@@H](Cc1c[nH]c2ccccc12)C(=O)N[C@@H](C(=O)N[C@@H](Cc1c[nH]c2ccccc12)C(=O)N[C@@H](C(=O)N[C@@H](Cc1c[nH]c2ccccc12)C(=O)NCCO)[C@H](C)O)C(C)C)C(C)C)C(C)C)C(C)C)C(C)C [compound 762] (For-VGA[dL]A[dV]V[dV]W[dV]W[dV]W[dT]W-NHCH2CH2OH) | 1.01 | 96.8% | - |
| CNC(=O)C[C@@H](NC(=O)[C@H](Cc1c[nH]c2ccccc12)NC(=O)[C@H](NC(=O)[C@H](Cc1c[nH]c2ccccc12)NC(=O)[C@@H](CC(C)C)NC(=O)[C@H](Cc1c[nH]c2ccccc12)NC(=O)[C@@H](CC(C)C)NC(=O)[C@@H](NC(=O)[C@@H](CC(C)C)NC(=O)[C@H](C)NC(=O)[C@H](NC(=O)[C@H](C)NC(=O)CNC(=O)[C@@H](NC=O)C(C)C)C(C)C)C(C)C)C(C)C)C(=O)N[C@@H](Cc1c[nH]c2ccccc12)C(=O)NCCO [compound 7334] (For-VGA[dV]A[dL]V[dL]W[dL]W[dV]W[dD](NHMe)W-NHCH2CH2OH) | 1.11 | 94.6% | - |
| CNC(=O)C[C@@H](NC(=O)[C@H](Cc1c[nH]c2ccccc12)NC(=O)[C@@H](CC(C)C)NC(=O)[C@H](Cc1c[nH]c2ccccc12)NC(=O)[C@@H](CC(C)C)NC(=O)[C@@H](NC(=O)[C@H](NC(=O)[C@H](C)NC(=O)[C@H](NC(=O)[C@H](C)NC(=O)CNC(=O)[C@@H](NC=O)C(C)C)C(C)C)C(C)C)C(C)C)C(=O)N[C@@H](Cc1c[nH]c2ccccc12)C(=O)N[C@H](CC(C)C)C(=O)N[C@@H](Cc1c[nH]c2ccccc12)C(=O)NCCO [compound 4203] (For-VGA[dV]A[dV]V[dL]W[dL]W[dD](NHMe)W[dL]W-NHCH2CH2OH) | 1.16 | 100% | - |
